Literature values, collected in patent US20160000075A1, “USE OF PYRIMIDINES IN STIMULATION OF PLANT GROWTH AND DEVELOPMENT AND ENHANCEMENT OF STRESS TOLERANCE” (ULUDAG ÜNIVERSITESI TEKNOLOJI TRANSFER OFISI TICARET VE …, priority 2013, published 2016).

Legend:
[1] = test system: brain lesion, rotational behaviour; conditions: uridine administered in the form of UMP
tomato = conditions: 4 mM concentration
cabbage = conditions: external administration
[2] = test system: plant species such as Arabidopsis thaliana, Solanum tuberosum, Fragaria×ananassa, Medicago sativa, Triticum aestivum, Zea mays; conditions: external administration
clover = conditions: external administration
[3] = test system: hypoxic and ischemic brain injuries; conditions: animal experiments and some clinical studies
[4] = test system: hypoxic ischemic brain damage; conditions: infant rats exposed to hypoxic ischemic brain damage
[5] = humans
[6] = test system: learning and memory functions; conditions: experimental animals, also environmentally impoverished animals
cellular regeneration = conditions: compared to only using auxin in culture medium

In the case of `O=c1ccn([C@@H]2O[C@H](COP(=O)(O)O)[C@@H](O)[C@H]2O)c(=O)[nH]1` [UMP, uridine-5′-monophosphate], the “brain lesion and rotational behaviour” value [1] is listed as “ameliorated brain lesion and reduced rotational behaviour”.
In the case of `NCCCCNCCCN` [spermidine], the high temperature tolerance (tomato) is given as “increase high temperature tolerance”.
For `C[N+](C)(C)CC(=O)O` [GlyBet, glycine betain], the tolerance against frost (cabbage) is listed as “increases tolerance against frost”, the “low temperature stress tolerance” value [2] is listed as “increase low temperature stress tolerance” and the tolerance against frost (clover) is listed as “increases tolerance against frost”.
In the case of `C[N+](C)(C)CCOP(=O)(O)OP(=O)([O-])OC[C@H]1O[C@@H](n2ccc(N)nc2=O)[C@H](O)[C@@H]1O` [CDP-choline, cytidine-5′-diphosphate choline], the “damage in hypoxic and ischemic brain injuries” value [3] is given as “reduces damage in hypoxic and ischemic brain injuries”.
For `O=c1ccn([C@@H]2O[C@H](CO)[C@@H](O)[C@H]2O)c(=O)[nH]1` [uridine], the “level of brain damage” value [4] is given as “significantly reduced the level of damage”, the “adverse effect of intravenous dose” value ([5]; intravenously, 10 g/m^2) is given as “cause shaking” and the “adverse effect of high oral dosage” value ([5]; oral, 10 g per day) is given as “causes diarrhea”. For the same compound, the “learning and memory functions” value [6] was “increase learning and memory functions”, the cellular regeneration (cellular regeneration) was “increases cellular regeneration” and the “growth and branching of neurons” value (neurons in the culture) was “increases the growth and branching of these cells”.
